This is an account of results in PMC7013301 (Evidence-based Complementary and Alternative Medicine : eCAM, 2020).

In data set [1] the target is T1, human dopamine D2 receptor (Homo sapiens, UniProt P14416).
T1 construct: host or cells: CHO-K1 (membranes)
The data set is described as follows: Antagonistic activity against dopamine D2 receptor, [35S]GTPγS binding, CHO-K1 membranes. The data set is classed as biochemical. The procedure:
(§1) Assays were performed at Eurofins Discovery (MO, USA). Briefly, evaluation of the inhibitory activities against human recombinant acetylcholinesterase (AChE) expressed in HEK-293 cells was performed by preincubation with test compound and/or vehicle with 41ng/ml of enzyme for 15 minutes at 25°C in phosphate buffer pH 7.4. After 20 minute incubation with 0.7 mM acetylthiocholine iodide and 0.5 mM 5,5-dithiobis-2-nitrobenzoic acid, the spectrophotometric absorbance was read at 405 nm (Catalog No. 104010). Evaluation of the antagonistic activities against human CRF2 receptor transfected in HEK-293 cells was performed by measuring the effects of the test compounds on cAMP production induced by 100 nM human CRF incubated for 30 minutes at room temperature via the HTRF detection method (Catalog No. 2086). Evaluation of the antagonistic activities against human dopamine D2, D3, and neuropeptide Y (NPY) Y2 receptors expressed in CHO-K1 cells, CHO-K1, and KAN-TS cells, respectively, was performed by preincubation of the test compounds and/or vehicle with the membrane proteins (0.1, 0.04, 0.04 mg/ml, respectively) and GDP (10, 1, 0.001 mM) in 20 mM HEPES, pH 7.4, 100 mM NaCl, 10 mM MgCl2, 1 mM DTT, and 1 mM EDTA for 20 minutes at 25°C, and SPA beads are then added for another 60 minutes at 30°C. The reaction was initiated by 0.3 nM [^35S]GTPγS for an additional incubation period (15, 30, 30 minute). Inhibition on increase of [^35S]GTPS binding response induced by dopamine (10, 0.03 mM) or 3 nM human NPY was assessed as receptor antagonist activities of test compounds (Catalog No. 310200, 310400, 332520). Evaluation of the antagonistic activities of shogaol and gingerol against human […] NPY Y2 receptor expressed in RBL cells was performed by measuring the effects of the test compounds on calcium flux induced by 15 nM human NPY (Catalog No. 4287). A concentration-response curve was generated to calculate IC50 values.
(In general: Binding of GTPγS marks nucleotide exchange on a G protein.)

In data set [2] the target is T2, human dopamine D3 receptor (Homo sapiens, UniProt P35462).
T2 construct: host or cells: CHO-K1 (membranes)
T2 sequence (P35462 whole entry): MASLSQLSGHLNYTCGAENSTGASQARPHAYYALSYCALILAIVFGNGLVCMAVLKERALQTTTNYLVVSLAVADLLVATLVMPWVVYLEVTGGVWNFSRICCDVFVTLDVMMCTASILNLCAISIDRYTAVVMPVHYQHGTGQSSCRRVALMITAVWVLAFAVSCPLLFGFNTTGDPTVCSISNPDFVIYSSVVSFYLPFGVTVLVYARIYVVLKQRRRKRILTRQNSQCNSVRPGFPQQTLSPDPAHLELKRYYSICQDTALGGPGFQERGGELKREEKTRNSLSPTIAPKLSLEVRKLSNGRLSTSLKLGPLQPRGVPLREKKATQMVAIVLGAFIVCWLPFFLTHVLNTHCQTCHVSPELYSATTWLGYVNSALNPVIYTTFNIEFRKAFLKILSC
In words: Antagonistic activity against dopamine D3 receptor, [35S]GTPγS binding, CHO-K1 membranes. The class given is biochemical. The procedure:
as §1

Data set [3] deals with T3, human recombinant acetylcholinesterase (AChE) (Homo sapiens, UniProt P22303).
T3 construct: purchased Eurofins Discovery 104010; host or cells: HEK-293
T3 sequence (P22303 32-614): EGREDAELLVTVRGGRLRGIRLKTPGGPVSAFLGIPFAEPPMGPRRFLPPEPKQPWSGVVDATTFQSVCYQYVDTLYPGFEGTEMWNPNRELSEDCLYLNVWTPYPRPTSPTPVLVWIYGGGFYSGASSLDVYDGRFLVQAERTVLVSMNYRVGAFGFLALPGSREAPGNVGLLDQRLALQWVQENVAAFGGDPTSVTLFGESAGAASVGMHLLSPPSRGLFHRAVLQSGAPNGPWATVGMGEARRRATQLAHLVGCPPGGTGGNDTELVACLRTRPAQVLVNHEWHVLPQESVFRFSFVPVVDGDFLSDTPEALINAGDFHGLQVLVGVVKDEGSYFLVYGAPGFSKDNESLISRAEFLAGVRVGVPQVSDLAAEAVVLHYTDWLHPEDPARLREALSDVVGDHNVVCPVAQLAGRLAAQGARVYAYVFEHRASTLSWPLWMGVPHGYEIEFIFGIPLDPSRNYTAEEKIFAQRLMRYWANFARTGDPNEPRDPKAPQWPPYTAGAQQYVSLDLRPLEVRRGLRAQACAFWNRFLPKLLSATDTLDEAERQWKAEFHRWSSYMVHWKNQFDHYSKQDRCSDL
In words: Inhibition of recombinant acetylcholinesterase, spectrophotometric (acetylthiocholine/DTNB). Conditions: pH 7.4, 25°C. The data set is classed as biochemical. The procedure: as §1

The target in data set [4] is T4, human CRF2 receptor (Homo sapiens, UniProt Q13324).
T4 construct: host or cells: HEK-293
T4 sequence (Q13324 1-411): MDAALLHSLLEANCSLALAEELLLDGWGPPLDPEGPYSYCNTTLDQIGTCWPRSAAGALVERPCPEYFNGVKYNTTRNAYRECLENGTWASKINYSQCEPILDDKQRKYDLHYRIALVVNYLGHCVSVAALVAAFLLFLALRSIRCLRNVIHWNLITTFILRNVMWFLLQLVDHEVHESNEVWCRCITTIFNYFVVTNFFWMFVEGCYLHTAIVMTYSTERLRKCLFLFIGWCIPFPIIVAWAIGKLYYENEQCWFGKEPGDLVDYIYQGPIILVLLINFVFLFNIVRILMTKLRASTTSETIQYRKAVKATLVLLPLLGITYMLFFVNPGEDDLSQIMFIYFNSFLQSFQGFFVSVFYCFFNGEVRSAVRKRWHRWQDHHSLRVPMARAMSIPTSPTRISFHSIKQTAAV
The data set is described as follows: Antagonistic activity against CRF2 receptor, CRF-induced cAMP production (HTRF) in HEK-293 cells. The class given is cell-based. The method, then: as §1
A general note: Changes in cAMP serve as a functional read-out for many G protein-coupled receptors.

Data set [5] deals with T5, human NPY Y2 receptor (Homo sapiens, UniProt P49146).
T5 construct: host or cells: RBL
T5 sequence (P49146 1-381): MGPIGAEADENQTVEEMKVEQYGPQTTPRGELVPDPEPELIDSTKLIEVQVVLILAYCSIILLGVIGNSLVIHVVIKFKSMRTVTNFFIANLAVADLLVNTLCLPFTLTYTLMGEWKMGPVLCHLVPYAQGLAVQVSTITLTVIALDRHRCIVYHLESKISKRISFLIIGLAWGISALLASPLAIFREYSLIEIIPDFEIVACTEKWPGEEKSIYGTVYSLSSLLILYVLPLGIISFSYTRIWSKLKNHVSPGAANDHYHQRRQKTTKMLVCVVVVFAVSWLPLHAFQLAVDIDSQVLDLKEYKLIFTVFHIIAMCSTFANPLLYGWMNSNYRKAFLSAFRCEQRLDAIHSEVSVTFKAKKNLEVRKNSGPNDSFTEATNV
The data set is described as follows: Antagonistic activity of shogaol and gingerol against NPY Y2 receptor, calcium flux in RBL cells. The data set is classed as cell-based. Particulars: calcium flux induced by 15 nM human NPY. The method, then: as §1
For orientation: Calcium flux is commonly read through the fluorescence of an indicator in the cells.

The conditions of data set [6]: cited from earlier work.
Data set [7] has as its system AChE. Conditions: cited from earlier work.
The target of data set [8] is T6, human neuropeptide Y (NPY) Y2 receptor (Homo sapiens, UniProt P49146).
T6 construct: host or cells: KAN-TS (membranes)
T6 sequence (P49146 1-381): T5 sequence (P49146 1-381)
The data set is described as follows: Antagonistic activity against NPY Y2 receptor, [35S]GTPγS binding, KAN-TS membranes. The data set is classed as biochemical. The method, then:
as §1

The test system of data set [9] is C57BL/6 mice. The data set is described as follows: CRF-induced delayed gastric emptying of solid meal in mice. The data set is classed as in vivo. Conditions: CRF ICV 0.3 and 1.0 μg/mouse, vs vehicle. The method, then: Seven-week-old male C57BL/6 mice (weighing 20–27 g) were purchased from Charles River Laboratories (Tokyo, Japan). Five mice were housed in a plastic cage (230 × 310 × 155 mm) with bedding materials and acclimated for a week in a controlled environment (20–26°C, 30–70% humidity) under a 12-hour light/dark cycle with free access to standard chow and water. This study was approved by and conducted according to the guidelines of the experimental animal ethics committees of Tsumura & Co. (Tokyo, Japan; Permit No. 14-094-1).
BGH was manufactured by Tsumura & Co., complying with the quality standards authorized in the Japanese Pharmacopoeia, which was published under the authority of the Japanese Ministry of Health, Labour and Welfare. […]
Solid gastric emptying was evaluated using a test meal containing 20 g of ground meal and 40.61 mL of distilled water. […] The gastric emptying of solid meal was calculated using the equation below: […]

Setting [10] is: inhibition of dopamine-induced [35S]GTPγS binding, read-out: IC50 value D2.
Setting [11] is: inhibition of dopamine-induced [35S]GTPγS binding, read-out: IC50 value D3.
Setting [12] is: cAMP production induced by 100 nM human CRF, HEK-293, read-out: IC50 value CRF2.
[13] abbreviates: reported value from previous study (*) ref 23.

Read-outs that look alike come from different tables or passages of the source. No end group written: not given here.

T1 sequence (P14416 whole entry): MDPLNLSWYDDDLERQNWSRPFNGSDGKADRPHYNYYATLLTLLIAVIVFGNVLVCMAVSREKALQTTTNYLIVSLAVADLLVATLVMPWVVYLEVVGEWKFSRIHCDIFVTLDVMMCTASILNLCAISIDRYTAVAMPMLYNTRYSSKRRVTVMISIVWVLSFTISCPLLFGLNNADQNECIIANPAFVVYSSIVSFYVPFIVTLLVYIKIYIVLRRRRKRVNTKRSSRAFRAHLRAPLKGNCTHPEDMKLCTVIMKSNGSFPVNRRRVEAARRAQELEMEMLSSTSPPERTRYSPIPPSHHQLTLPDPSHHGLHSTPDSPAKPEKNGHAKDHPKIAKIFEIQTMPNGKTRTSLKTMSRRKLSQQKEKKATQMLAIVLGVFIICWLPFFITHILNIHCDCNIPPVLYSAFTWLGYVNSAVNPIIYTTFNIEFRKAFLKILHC

On to `CCCCC/C=C/C(=O)CCc1ccc(O)c(OC)c1` [6-Shogaol], for which the half-inhibitory concentration (IC50) – broadly, the concentration needed to halve the response being measured – is > 100 µM in data set [1] (setting [10]); 11.3 µM in data set [2] (setting [11]); > 100 µM in data set [3]; > 100 µM in data set [4] (setting [12]); > 100 µM in data set [5].
As for `CCCCCCC/C=C/C(=O)CCc1ccc(O)c(OC)c1` [8-Shogaol], the concentration for half-maximal inhibition (IC50) is 7.22 µM in data set [1] (setting [10]); 11.2 µM in data set [2] (setting [11]); 18.9 µM in [3]; > 100 µM in [4] (setting [12]); > 100 µM in [5]. In addition, in data set [6] (after oral administration of ginger extract ref 34), the “Detection in the brain” value was “not detected in the brain”.
Turning to `CCCCCCCCC[C@H](O)CC(=O)CCc1ccc(O)c(OC)c1` [10-Gingerol], the IC50 in [1] (setting [10]) was > 100 µM; in data set [2] (setting [11]) it was > 100 µM; in [3], 25.9 µM; in [4] (setting [12]) it was > 100 µM; in data set [5], > 100 µM.
As for `C=CCc1ccc(O)c(-c2ccc(O)c(CC=C)c2)c1` [Honokiol], the half-inhibitory concentration (IC50) in data set [7] (setting [13]) was 57 µM; in data set [1] (setting [10]) it was 36.2 µM; in data set [2] (setting [11]) it was 52.7 µM; in data set [8] it was > 100 µM; in data set [4], 40 µM. In [6], the Blood-brain barrier passage entry is listed as “capable of traversing the blood-brain barrier”.
For the compound `O=c1cc(-c2ccc(O)c(O)c2)oc2cc(O)cc(O)c12` [Luteolin], the IC50 is 32.5 µM in [7] (reported value from previous study (**) ref 24); 48.9 µM in [1]; > 100 µM in [2]; 8.39 µM in data set [8] (inhibition of [35S]GTPγS binding induced by 3 nM human NPY, KAN-TS cells, read-out: IC50 value NPY Y2); > 100 µM in [4] (setting [12]). Also, the Blood-brain barrier passage entry in [6] (in vivo) is given as “capable of crossing blood-brain barrier”.
Turning to `C=CCc1ccc(O)c(-c2cc(CC=C)ccc2O)c1` [Magnolol], the concentration for half-maximal inhibition (IC50) is 69 µM in [7] (setting [13]); 43.1 µM in data set [1]; 50.1 µM in data set [2]; > 100 µM in [8]; 32 µM in data set [4]. Besides, the Blood-brain barrier passage entry in data set [6] is reported as “capable of traversing the blood-brain barrier”.
`O=C(/C=C/c1ccc(O)c(O)c1)O[C@H](Cc1ccc(O)c(O)c1)C(=O)O` [Rosmarinic acid]: the half-inhibitory concentration (IC50) is > 100 µM in data set [1] (setting [10]); 0.54 µM in data set [2] (setting [11]); > 100 µM in [8]; > 100 µM in data set [3]; > 100 µM in data set [4]. In addition, the Blood-brain barrier permeability result in [6] is “extremely low”.
For “CRF: Stress hormone corticotropin-releasing factor (4136-s; Peptide Institute), injected ICV to induce delayed gastric emptying (SEEPPISLDLTFHLLREVLEMARAEQLAQQAHSNRKLMEII; ends and bridges not checked; UniProt P06850 154-194, looked up)”, in data set [9], the “Gastric emptying rate of solid test meal (2 hours) after CRF” value is “significantly decreased”.
